Assay results taken from US20230310573A1, “Stabilized Vaccine Compositions” (priority 2020, published 2023).

Target: T1, RSV pre-fusion F protein of SEQ ID NO: 10 (Human respiratory syncytial virus A, UniProt P03420, D486N/DEL108-136/I379V/M447V/N67I/P102A/S215P)
T1 construct: made in house
Format: physicochemical
Details: phosphate buffer (Formulation 1), preF 0.3 mg/ml, 1:3 trimer:compound, RT to −70° C. in 24 hours
Description: The RSV pre-fusion F protein of SEQ ID NO: 10 was diluted to 0.3 mg/ml in phosphate buffer (Formulation 1) and 0.75 ml was filled in glass injection vials with rubber stopper and sealed with aluminum caps. Additionally, protein was diluted in the formulation buffers with inhibitor in a 1:3 trimer:compound ratio. One inhibitor binds one trimer so with a 1:3 ratio there is an excess of inhibitor. […] In 24 hours, samples were cooled down from RT to −70° C. Samples were thawed to RT and analyzed by analytical Size Exclusion Chromatography (SEC) to measure loss of RSV F trimer.
0.75 ml of each formulation was filled in glass injection vials with rubber stopper and sealed with aluminum caps. Additionally, protein was diluted in the formulation buffers and inhibitor was added in a 1:1, 1:3, 1:9, 1:27 and 1:50 trimer: compound ratio. Final compound concentrations were 1.7×10^−6 M, 5.2×10^−6 M, 1.6×10^−5M, 4.6×10^−5, and 8.6×10^−5 M, respectively. Vials were slowly frozen to −70° C. in 24 hours. Samples were subsequently thawed to RT and analyzed by analytical Size Exclusion Chromatography (SEC) to measure loss of RSV F trimer compared the sample that was kept at 4° C.

Compound: CS(=O)(=O)CCCn1c(Cn2c(=O)n(C3CC3)c3ccncc32)nc2cc(Br)ccc21 [Compound III, 3-[[5-bromo-1-(3-methylsulfonylpropyl)benzimidazol-2-yl]methyl]-1-cyclopropyl-imidazo[4,5-c]pyridin-2-one]
- trimer signal lost after slow freeze/thaw (analytical SEC): 2.0+/−2.0%
